Laboratory results: patent US7713527B2, “Specific avian egg antibodies for disease prevention and improvement of growth performance” (priority 2006, dated 2010)
Read-outs that look alike come from different tables or passages of the source.

Format: in vivo
Settings: Mecadox 1.0% in diet, no SDEP
Protocol: Thirty-six 18 day old piglets (6.3±0.2 kg) were allocated to six treatment groups, blocked by weight and given ad libitum access to feed and water (n=6/group)
Each group was administered varying doses of SDEP containing antibodies to ETEC K88 and/or antibiotics for 28 days (Table 1).
Animals were weighed at the end of phase 1 (14 d) and phase 2 (28 d), and average daily gains were calculated.
Thirty six crossbred (GAP Genetics, Winnipeg, MB, Canada) 18-d old pigs with an initial weight of 6.3±0.2 kg were allotted into six treatment groups: (1) control; (2) 0.1% SDEP; (3) 0.1% SDEP+antibiotics; (4) control+antibiotics; (5) 0.4% SDEP; (6) 0.4% SDEP+antibiotics.
Pigs were housed in stainless steel pens equipped with nipple waterers, stainless steel feeders, and plastic-coated expanded metal floors. The pens were located in an environmentally regulated building maintained at 25±2° C. with a 12-h light/dark cycle. Body weight and feed consumption were recorded after every phase and ad libitum access to feed and water was provided during the entire period of the study.
There were three pens per treatment and two pigs per pen. The pigs were fed a standard pig starter diet in phases 1 (Table 3) and 2 (Table 4). The diets were with or without spray-dried egg powder (SDEP) containing E. Coli K-88 antibodies and with or without antibiotics. The diets were fed in two phases. Both phases were fed for 14 days each. Pigs were allotted to treatments based on weaned weights and dam. Feed and water was available always. Pigs and feeders were weighed at the end of each phase to determine weight gains and feed disappearance.

## COC(=O)N/N=C/c1c[n+]([O-])c2ccccc2[n+]1[O-] [Mecadox]
Phase 1 (days 0-14)
  Avg. daily gain / ADG: 240 g
  Avg. daily intake / ADFI: 328 g
  Mean feed/gain: 1.63
  Mean final weight / End Weight: 9.6 kg
Phase 1
  G:F: 0.72
Phase 2 (days 14-28)
  Avg. daily gain / ADG: 421 g
  Avg. daily intake / ADFI: 532 g
  Mean feed/gain: 1.35
  Mean final weight / End Weight: 15.4 kg
Phase 2
  G:F: 0.74
